Tested on: MCH receptors
Assay: MCH receptor activity class (method not given)
Conditions: class by percent of control at 10^−7 M or IC50

Row | Compound | class
1 | Cc1nc(N[C@H]2CC[C@@H](NC(=O)c3ccc(OC(F)(F)F)cc3)CC2)nc(N(C)C)c1C [compound 2843, N-(cis-4-{[4-(dimethylamino)-5,6-dimethylpyrimidin-2-yl]amino}cyclohexyl)-4-(trifluoromethoxy)benzamide] | 2 (Class 2: The value of percent of control at 10^−7 M was from 40% to 60% or the value of IC′50 was from 50 nM to 200 nM.)
2 | Cc1nc(N[C@H]2CC[C@@H](NC(=O)c3ccc(C#N)cc3)CC2)nc(N(C)C)c1C [compound 2844, 4-cyano-N-(cis-4-{[4-(dimethylamino)-5,6-dimethylpyrimidin-2-yl]amino}cyclohexyl)benzamide] | 1 (Class 1: The value of percent of control at 10^−7 M was less than 40% or the value of IC50 was less than 50 nM.)
3 | Cc1ccc(C(=O)N[C@H]2CC[C@@H](Nc3nc(C)c(C)c(N(C)C)n3)CC2)cc1 [compound 2845, N-(cis-4-{[4-(dimethylamino)-5,6-dimethylpyrimidin-2-yl]amino}cyclohexyl)-4-methylbenzamide] | 1 (Class 1: The value of percent of control at 10^−7 M was less than 40% or the value of IC50 was less than 50 nM.)
4 | Cc1nc(N[C@H]2CC[C@@H](NC(=O)c3ccc(F)cc3)CC2)nc(N(C)C)c1C [compound 2846, N-(cis-4-{[4-(dimethylamino)-5,6-dimethylpyrimidin-2-yl]amino}cyclohexyl)-4-fluorobenzamide] | 1 (Class 1: The value of percent of control at 10^−7 M was less than 40% or the value of IC50 was less than 50 nM.)
5 | Cc1nc(N[C@H]2CC[C@@H](NC(=O)c3ccc(Cl)cc3)CC2)nc(N(C)C)c1C [compound 2847, 4-chloro-N-(cis-4-{[4-(dimethylamino)-5,6-dimethylpyrimidin-2-yl]amino}cyclohexyl)benzamide] | 1 (Class 1: The value of percent of control at 10^−7 M was less than 40% or the value of IC50 was less than 50 nM.)
6 | COc1ccccc1C(=O)N[C@H]1CC[C@@H](Nc2nc(C)c(C)c(N(C)C)n2)CC1 [compound 2848, N-(cis-4-{[4-(dimethylamino)-5,6-dimethylpyrimidin-2-yl]amino}cyclohexyl)-2-methoxybenzamide] | 2 (Class 2: The value of percent of control at 10^−7 M was from 40% to 60% or the value of IC′50 was from 50 nM to 200 nM.)
7 | Cc1nc(N[C@H]2CC[C@@H](NC(=O)c3ccc(Br)cc3)CC2)nc(N(C)C)c1C [compound 2849, 4-bromo-N-(cis-4-{[4-(dimethylamino)-5,6-dimethylpyrimidin-2-yl]amino}cyclohexyl)benzamide] | 1 (Class 1: The value of percent of control at 10^−7 M was less than 40% or the value of IC50 was less than 50 nM.)
8 | Cc1nc(N[C@H]2CC[C@@H](NC(=O)c3ccc(C(F)(F)F)cc3)CC2)nc(N(C)C)c1C [compound 2850, N-(cis-4-{[4-(dimethylamino)-5,6-dimethylpyrimidin-2-yl]amino}cyclohexyl)-4-(trifluoromethyl)benzamide] | 1 (Class 1: The value of percent of control at 10^−7 M was less than 40% or the value of IC50 was less than 50 nM.)
9 | CCOc1ccc(C(=O)N[C@H]2CC[C@@H](Nc3nc(C)c(C)c(N(C)C)n3)CC2)cc1 [compound 2851] | 3 (Class 3 The value of percent of control at 10^−7 M was more than 60% or the value of IC50 was more than 200 nM.)
10 | Cc1cc(C(=O)N[C@H]2CC[C@@H](Nc3nc(C)c(C)c(N(C)C)n3)CC2)ccc1Br [compound 2852, 4-bromo-N-(cis-4-{[4-(dimethylamino)-5,6-dimethylpyrimidin-2-yl]amino}cyclohexyl)-3-methylbenzamide] | 1 (Class 1: The value of percent of control at 10^−7 M was less than 40% or the value of IC50 was less than 50 nM.)
11 | Cc1ccc(C(=O)N[C@H]2CC[C@@H](Nc3nc(C)c(C)c(N(C)C)n3)CC2)cc1F [compound 2853, N-(cis-4-{[4-(dimethylamino)-5,6-dimethylpyrimidin-2-yl]amino}cyclohexyl)-3-fluoro-4-methylbenzamide] | 1 (Class 1: The value of percent of control at 10^−7 M was less than 40% or the value of IC50 was less than 50 nM.)
12 | Cc1cc(C(=O)N[C@H]2CC[C@@H](Nc3nc(C)c(C)c(N(C)C)n3)CC2)ccc1F [compound 2854, N-(cis-4-{[4-(dimethylamino)-5,6-dimethylpyrimidin-2-yl]amino}cyclohexyl)-4-fluoro-3-methylbenzamide] | 1 (Class 1: The value of percent of control at 10^−7 M was less than 40% or the value of IC50 was less than 50 nM.)
13 | CCc1cccc(C(=O)N[C@H]2CC[C@@H](Nc3nc(C)c(C)c(N(C)C)n3)CC2)c1 [compound 2855, N-(cis-4-{[4-(dimethylamino)-5,6-dimethylpyrimidin-2-yl]amino}cyclohexyl)-3-ethylbenzamide] | 2 (Class 2: The value of percent of control at 10^−7 M was from 40% to 60% or the value of IC′50 was from 50 nM to 200 nM.)
14 | Cc1nc(N[C@H]2CC[C@@H](NC(=O)c3cccc(OC(F)(F)F)c3)CC2)nc(N(C)C)c1C [compound 2856] | 1 (Class 1: The value of percent of control at 10^−7 M was less than 40% or the value of IC50 was less than 50 nM.)
15 | Cc1nc(N[C@H]2CC[C@@H](NC(=O)c3cncc(Br)c3)CC2)nc(N(C)C)c1C [compound 2857, 5-bromo-N-(cis-4-{[4-(dimethylamino)-5,6-dimethylpyrimidin-2-yl]amino}cyclohexyl)nicotinamide] | 1 (Class 1: The value of percent of control at 10^−7 M was less than 40% or the value of IC50 was less than 50 nM.)
16 | Cc1ccc(C(=O)N[C@H]2CC[C@@H](Nc3nc(C)c(C)c(N(C)C)n3)CC2)s1 [compound 2858] | 1 (Class 1: The value of percent of control at 10^−7 M was less than 40% or the value of IC50 was less than 50 nM.)
17 | Cc1nc(N[C@H]2CC[C@@H](NC(=O)c3ccc(C(F)(F)F)nc3)CC2)nc(N(C)C)c1C [compound 2859] | 2 (Class 2: The value of percent of control at 10^−7 M was from 40% to 60% or the value of IC′50 was from 50 nM to 200 nM.)

Row | Compound | class
18 | CCOc1cc(OCC)cc(C(=O)N[C@H]2CC[C@@H](Nc3nc(C)c(C)c(N(C)C)n3)CC2)c1 [compound 2860] | 1 (Class 1: The value of percent of control at 10^−7 M was less than 40% or the value of IC50 was less than 50 nM.)
19 | CCOc1cccc(C(=O)N[C@H]2CC[C@@H](Nc3nc(C)c(C)c(N(C)C)n3)CC2)c1 [compound 2861] | 1 (Class 1: The value of percent of control at 10^−7 M was less than 40% or the value of IC50 was less than 50 nM.)
20 | Cc1nc(N[C@H]2CC[C@@H](NC(=O)c3cccc(OC(C)C)c3)CC2)nc(N(C)C)c1C [compound 2862] | 1 (Class 1: The value of percent of control at 10^−7 M was less than 40% or the value of IC50 was less than 50 nM.)
21 | Cc1nc(N[C@H]2CC[C@@H](NC(=O)c3cccc(O)n3)CC2)nc(N(C)C)c1C [compound 2863] | 3 (Class 3 The value of percent of control at 10^−7 M was more than 60% or the value of IC50 was more than 200 nM.)
22 | Cc1nc(N[C@H]2CC[C@@H](NC(=O)c3ccc(F)c(F)c3)CC2)nc(N(C)C)c1C [compound 2864] | 1 (Class 1: The value of percent of control at 10^−7 M was less than 40% or the value of IC50 was less than 50 nM.)
23 | Cc1nc(N[C@H]2CC[C@@H](NCc3cccc(OC(F)(F)F)c3)CC2)nc(N(C)C)c1C [compound 2865] | 3 (Class 3 The value of percent of control at 10^−7 M was more than 60% or the value of IC50 was more than 200 nM.)
24 | Cc1nc(N[C@H]2CC[C@@H](NCc3ccc(F)c(F)c3)CC2)nc(N(C)C)c1C [compound 2866] | 2 (Class 2: The value of percent of control at 10^−7 M was from 40% to 60% or the value of IC′50 was from 50 nM to 200 nM.)
25 | CCOc1ccccc1NC(=O)N[C@H]1CC[C@@H](Nc2nc(C)c(C)c(N(C)C)n2)CC1 [compound 2868] | 1 (Class 1: The value of percent of control at 10^−7 M was less than 40% or the value of IC50 was less than 50 nM.)
26 | Cc1nc(N[C@H]2CC[C@@H](NC(=O)Nc3ccc(OCc4ccccc4)cc3)CC2)nc(N(C)C)c1C [compound 2869] | 3 (Class 3 The value of percent of control at 10^−7 M was more than 60% or the value of IC50 was more than 200 nM.)
27 | Cc1cnc(N[C@H]2CC[C@@H](NC(=O)C3(c4ccc(Cl)cc4)CC3)CC2)nc1N(C)C [compound 2870] | 1 (Class 1: The value of percent of control at 10^−7 M was less than 40% or the value of IC50 was less than 50 nM.)
28 | Cc1cnc(N[C@H]2CC[C@@H](NC(=O)C3(c4ccc(Cl)cc4Cl)CC3)CC2)nc1N(C)C [compound 2871] | 1 (Class 1: The value of percent of control at 10^−7 M was less than 40% or the value of IC50 was less than 50 nM.)
29 | Cc1cnc(N[C@H]2CC[C@@H](NC(=O)Cc3ccc(Cl)cc3)CC2)nc1N(C)C [compound 2872, 2-(4-chlorophenyl)-N-(cis-4-{[4-(dimethylamino)-5-methylpyrimidin-2-yl]amino}cyclohexyl)acetamide] | 1 (Class 1: The value of percent of control at 10^−7 M was less than 40% or the value of IC50 was less than 50 nM.)
30 | Cc1ccc(C2(C(=O)N[C@H]3CC[C@@H](Nc4ncc(C)c(N(C)C)n4)CC3)CC2)cc1 [compound 2873] | 1 (Class 1: The value of percent of control at 10^−7 M was less than 40% or the value of IC50 was less than 50 nM.)
31 | COc1ccc(C2(C(=O)N[C@H]3CC[C@@H](Nc4ncc(C)c(N(C)C)n4)CC3)CC2)cc1 [compound 2875] | 1 (Class 1: The value of percent of control at 10^−7 M was less than 40% or the value of IC50 was less than 50 nM.)
32 | COc1cccc(OCC(=O)N[C@H]2CC[C@@H](Nc3ncc(C)c(N(C)C)n3)CC2)c1 [compound 2877, N-(cis-4-{[4-(dimethylamino)-5-methylpyrimidin-2-yl]amino}cyclohexyl)-2-(3-methoxyphenoxy)acetamide] | 1 (Class 1: The value of percent of control at 10^−7 M was less than 40% or the value of IC50 was less than 50 nM.)
33 | Cc1cnc(N[C@H]2CC[C@@H](NC(=O)COc3cccc(C(F)(F)F)c3)CC2)nc1N(C)C [compound 2878, N-(cis-4-{[4-(dimethylamino)-5-methylpyrimidin-2-yl]amino}cyclohexyl)-2-[3-(trifluoromethyl)phenoxy]acetamide] | 1 (Class 1: The value of percent of control at 10^−7 M was less than 40% or the value of IC50 was less than 50 nM.)

Source: US20050197350A1, “Novel quinoline, tetrahydroquinazoline, and pyrimidine derivatives and methods of treatment related to the use thereof” (TAISHO PHARMACEUTICAL CO., LTD., priority 2003, published 2005)
